Measurements: paper PMC3642319, “Biochemical and Immunological Characterization of Toxoplasma gondii Macrophage Migration Inhibitory Factor” (The Journal of Biological Chemistry, 2013)

What was measured:
[1] = biological target: T1, HsMIF (Homo sapiens, UniProt P14174); assay: dopachrome tautomerase assay, absorbance at […] nm; type: biochemical
T1 construct: gene MIF; commercial recombinant human MIF (R&D Systems)
T1 sequence (P14174 2-115): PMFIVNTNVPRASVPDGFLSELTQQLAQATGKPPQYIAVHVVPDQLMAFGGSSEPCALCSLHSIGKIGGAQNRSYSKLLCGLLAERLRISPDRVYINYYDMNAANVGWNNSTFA

[2] = test system: COC(=O)[C@@H]1CC2=CC(=O)C(=O)C=C2N1; assay: purified protein; details: L-DOPA methyl ester (1-20 mM) oxidised in situ with sodium periodate, sodium phosphate pH 6.2, 1 mM EDTA, 37 °C, paper names the substrate L-DOPA methyl ester

Molecule	inhibition at 10 µM [1]	Km [2]
COC(=O)CC1CC(c2ccc(O)cc2)=NO1 (racemic) [ISO-1]	60%	
TgMIF (Toxoplasma gondii)		9.6 mM
